Key:
Format in all cases: in vivo
[1] = system: Anthonomus grandis; experiment: Boll weevil (Anthonomus grandis) microtiter diet test; settings: 120 h, 2500 ppm, 5 days, read-out: Egg and larval mortality in comparison with untreated controls
Description: (§1) If not otherwise specified, the test solutions are prepared as follows: The active compound is dissolved at the desired concentration in a mixture of 1:1 (vol:vol) distilled water: acteone. The test solution is prepared at the day of use. Test solutions are prepared in general at concentrations of 2500 ppm, 1415 ppm and 800 ppm (wt/vol).
For evaluating control of boll weevil (Anthonomus grandis) the test unit consisted of 96-well-microtiter plates containing an insect diet and 5-10 A. grandis eggs. The compounds were formulated using a solution containing 75% v/v water and 25% v/v DMSO. Different concentrations of formulated compounds were sprayed onto the insect diet at 5 µl, using a custom built micro atomizer, at two replications. After application, microtiter plates were incubated at about 25 ± 1° C. and about 75 ± 5% relative humidity for 5 days. Egg and larval mortality was then visually assessed.

[2] = system: Trialeurodes vaporariorum; experiment: Greenhouse whitefly (Trialeurodes vaporariorum) egg plant leaf disk test; settings: foliar, 144 h, 6 days, read-out: Mortality of hatched crawlers in comparison with untreated controls
Description: as §1
For evaluating control of Greenhouse Whitefly (Trialeurodes vaporariorum) the test unit consisted of 96-well-microtiter plates containing a leaf disk of egg plant leaf disk with white fly eggs. The compounds or mixtures were formulated using a solution containing 75% water and 25% DMSO. Different concentrations of formulated were sprayed onto the insect diet at 2.5 µl, using a custom built micro atomizer, at two replications. After application, microtiter plates were incubated at 23 ± 1° C., 65 ± 5% RH for 6 days. Mortality of hatched crawlers was then visually assessed.

[3] = system: Aedes aegypti; experiment: whole plant or invertebrate; settings: 48 h, 2 days, freshly hatched larvae, read-out: Larval mortality in comparison with untreated controls
Description: as §1
For evaluating control of yellow fever mosquito (Aedes aegypti) the test unit consisted of 96-well-microtiter plates containing 200 µl of tap water per well and 5-15 freshly hatched A. aegypti larvae. The active compounds were formulated using a solution containing 75% (v/v) water and 25% (v/v) DMSO. Different concentrations of formulated compounds or mixtures were sprayed onto the […] at 2.5 µl, using a custom built micro atomizer, at two replications. After application, microtiter plates were incubated at 28 + 1° C., 80 + 5% RH for 2 days. Larval mortality was then visually assessed.

[4] = system: Heliothis virescens; experiment: Tobacco budworm (Heliothis virescens) microtiter diet test; settings: 120 h, 2500 ppm, 5 days, read-out: Egg and larval mortality in comparison with untreated controls
Description: as §1
For evaluating control of tobacco budworm (Heliothis virescens) the test unit consisted of 96-well-microtiter plates containing an insect diet and 15-25 H. virescens eggs. The compounds were formulated using a solution containing 75% v/v water and 25% v/v DMSO. Different concentrations of formulated compounds were sprayed onto the insect diet at 10 µl, using a custom built micro atomizer, at two replications. After application, microtiter plates were incubated at about 28 ± 1° C. and about 80 ± 5% relative humidity for 5 days. Egg and larval mortality was then visually assessed.

[5] = system: Nezara viridula; experiment: Green soldier stink bug (Nezara viridula) soybean pod spray test; settings: 120 h, 5 days, late 3rd instar, read-out: Percent mortality in comparison with untreated controls
Description: as §1
The active compound is dissolved at the desired concentration in a mixture of 1:1 (vol:vol) distilled water: aceteone. Surfactant (Kinetic) is added at a rate of 0.01% (vol/vol).The test solution is prepared at the day of use. Soybean pods are placed in 90 × 50 mm glass Petri dishes lined with moistened filter paper and inoculated with ten late 3rd instar N. viridula. Using a hand atomizer, an approximately 2 ml solution is sprayed into each Petri dish. Treated set-up is kept at about 25-26° C. and relative humidity of about 65-70%. Percent mortality is recorded after 5 days.

[6] = system: Myzus persicae; experiment: Green peach aphid (Myzus persicae) systemic artificial diet test; settings: 72 h, 3 days, adult aphids on treated diet, read-out: Aphid mortality in comparison with untreated controls
Description: as §1
For evaluating control of green peach aphid (Myzus persicae) through systemic means the test unit consisted of 96-well-microtiter plates containing liquid artificial diet under an artificial membrane. The compounds were formulated using a solution containing 75% v/v water and 25% v/v DMSO. Different concentrations of formulated compounds were pipetted into the aphid diet, using a custom built pipetter, at two replications. After application, 5 - 8 adult aphids were placed on the artificial membrane inside the microtiter plate wells. The aphids were then allowed to suck on the treated aphid diet and incubated at about 23 ± 1° C. and about 50 ± 5 % relative humidity for 3 days. Aphid mortality and fecundity was then visually assessed.

[7] = system: Megoura viciae; experiment: Vetch aphid (Megoura viciae) broad bean leaf disk test; settings: foliar, 120 h, 5 days, adult aphids on treated leaf disks, read-out: Aphid mortality in comparison with untreated controls
Description: as §1
For evaluating control of vetch aphid (Megoura viciae) through contact or systemic means the test unit consisted of 24-well-microtiter plates containing broad bean leaf disks.
The compounds were formulated using a solution containing 75% v/v water and 25% v/v DMSO. Different concentrations of formulated compounds were sprayed onto the leaf disks at 2.5 µl, using a custom built micro atomizer, at two replications. After application, the leaf disks were air-dried and 5 - 8 adult aphids placed on the leaf disks inside the microtiter plate wells. The aphids were then allowed to suck on the treated leaf disks and incubated at about 23 ± 1° C. and about 50 ± 5% relative humidity for 5 days. Aphid mortality and fecundity was then visually assessed.

CCS(=O)(=O)c1cc(C(C)(C)C#N)cnc1-c1cn2c(=O)n(C3CC3)c(C(F)(F)F)cc2n1 [Compound C-4]
> 75%: mortality at 2500 ppm [1] | mortality at 800 ppm ([2]; 800 ppm) | mortality at 2500 ppm ([2]; 2500 ppm) | mortality at 800 ppm [3] | mortality at 2500 ppm [4] | mortality at 800 ppm [5] | mortality at 800 ppm ([6]; 800 ppm) | mortality at 2500 ppm ([6]; 2500 ppm) | mortality at 2500 ppm [7]
